Source: ChEMBL document CHEMBL6127067, “Discovery, Biosynthesis, and Characterization of Rodencin, a Two-Component Lanthipeptide, Harboring d-Amino Acids Introduced by the Unusual Dehydrogenase RodJA” (J Nat Prod, 2024)
Active and inactive are the calls of the source. The rule behind the calls is not given here.

Columns and labels:
Cell membrane [1] = assay: Induction of outer membrane permeability in Escherichia coli using 1-N-Nphenylnaphthylamine fluorescent probe by microplate reader; format: subcellular
Cell membrane [2] = assay: Induction of inner membrane permeability in Micrococcus flavus NIZO B423 using DNA-binding stain propidium iodide by membrane integrity assay; format: subcellular
Staphylococcus aureus [3] = assay: Antimicrobial activity against Staphylococcus aureus LMG 15975 assessed as absence of visible growth measured after 20 hrs by broth dilution assay; format: functional, organism-based
Bacillus subtilis = assay: Antimicrobial activity against Bacillus subtilis 168 assessed as absence of visible growth measured after 20 hrs by broth dilution assay; format: functional, organism-based
Staphylococcus aureus [4] = assay: Antimicrobial activity against Staphylococcus aureus LMG 8224 assessed as absence of visible growth measured after 20 hrs by broth dilution assay; format: functional, organism-based
Listeria monocytogenes [5] = assay: Antimicrobial activity against Listeria monocytogenes LMG 10470 assessed as absence of visible growth measured after 20 hrs by broth dilution assay; format: functional, organism-based
Bacillus cereus [6] = assay: Antimicrobial activity against Bacillus cereus ATCC14579 assessed as absence of visible growth in presence of Rod-alpha measured after 20 hrs by broth dilution assay; format: functional, organism-based
Bacillus cereus [7] = assay: Antimicrobial activity against Bacillus cereus ATCC14579 assessed as absence of visible growth measured after 20 hrs by broth dilution assay; format: functional, organism-based
Micrococcus flavus = assay: Antimicrobial activity against Micrococcus flavus NIZO B423 assessed as absence of visible growth measured after 20 hrs by broth dilution assay; format: functional, organism-based
Lactococcus lactis = assay: Antimicrobial activity against Lactococcus lactis NZ9000 assessed as absence of visible growth measured after 20 hrs by broth dilution assay; format: functional, organism-based
Staphylococcus aureus [8] = assay: Antimicrobial activity against methicillin-resistant Staphylococcus aureus assessed as absence of visible growth in presence of Rod-alpha measured after 20 hrs by broth dilution assay; format: functional, organism-based
Salmonella enterica = assay: Antimicrobial activity against Salmonella enterica LMG 07233 assessed as absence of visible growth measured after 20 hrs by broth dilution assay; format: functional, organism-based
Cell membrane [9] = assay: Induction of outer membrane permeability in Escherichia coli using 1-N-Nphenylnaphthylamine fluorescent probe in presence of Rod alpha by microplate reader; format: subcellular
Escherichia coli = assay: Antimicrobial activity against Escherichia coli LMG 8223 assessed as absence of visible growth measured after 20 hrs by broth dilution assay; format: functional, organism-based
Listeria monocytogenes [10] = assay: Antimicrobial activity against Listeria monocytogenes LMG 10470 assessed as absence of visible growth in presence of Rod-alpha measured after 20 hrs by broth dilution assay; format: functional, organism-based
Cell membrane [11] = assay: Induction of inner membrane permeability in Micrococcus flavus NIZO B423 using DNA-binding stain propidium iodide in presence of Rod alpha by membrane integrity assay
Enterococcus faecium [12] = assay: Antimicrobial activity against Enterococcus faecium LMG 16003 assessed as absence of visible growth in presence of Rod-alpha measured after 20 hrs by broth dilution assay; format: functional, organism-based
Enterococcus faecium [13] = assay: Antimicrobial activity against Enterococcus faecium LMG 16003 assessed as absence of visible growth measured after 20 hrs by broth dilution assay; format: functional, organism-based
Cell membrane [14] = assay: Induction of outer membrane permeability in Escherichia coli using 1-N-Nphenylnaphthylamine fluorescent probe in presence of Rod beta by microplate reader; format: subcellular
Cell membrane [15] = assay: Induction of inner membrane permeability in Micrococcus flavus NIZO B423 using DNA-binding stain propidium iodide in presence of Rod beta by membrane integrity assay
[16] = Binding affinity to externally added Lipid II (unknown origin) in Micrococcus flavus NIZO B423 broth assessed as decrease in antimicrobial activity against Micrococcus flavus by Spot-on-lawn assay
Enterococcus faecium [17] = assay: Antimicrobial activity against Enterococcus faecium LMG 16003 assessed as absence of visible growth in presence of Rod-beta measured after 20 hrs by broth dilution assay; format: functional, organism-based
Listeria monocytogenes [18] = assay: Antimicrobial activity against Listeria monocytogenes LMG 10470 assessed as absence of visible growth in presence of Rod-beta measured after 20 hrs by broth dilution assay; format: functional, organism-based
Bacillus cereus [19] = assay: Antimicrobial activity against Bacillus cereus ATCC14579 assessed as absence of visible growth in presence of Rod-beta measured after 20 hrs by broth dilution assay; format: functional, organism-based
Staphylococcus aureus [20] = assay: Antimicrobial activity against methicillin-resistant Staphylococcus aureus assessed as absence of visible growth in presence of Rod-beta measured after 20 hrs by broth dilution assay; format: functional, organism-based

| Structure (SMILES) | Activity (Cell membrane [1]) | Activity (Cell membrane [2]) | Activity (Staphylococcus aureus [3]) | Activity (Bacillus subtilis) | Activity (Staphylococcus aureus [4]) | Activity (Listeria monocytogenes [5]) | Activity (Bacillus cereus [7]) | Activity (Micrococcus flavus) | Activity (Lactococcus lactis) | Activity (Salmonella enterica) | Activity (Escherichia coli) | Activity (Enterococcus faecium [13]) | further results |
| --- | --- | --- | --- | --- | --- | --- | --- | --- | --- | --- | --- | --- | --- |
| C/C=C(/NC(=O)[C@@H](N)Cc1c[nH]c2ccccc12)C(=O)N1CCC[C@H]1C(=O)N[C@@H](C)C(=O)N[C@@H](CC(C)C)C(=O)N[C@H](C)C(=O)N[C@H](C(=O)N[C@H](C(=O)N[C@H](CC)C(=O)NCC(=O)N[C@@H](Cc1ccc(O)cc1)C(=O)N[C@H](C(=O)N[C@@H]1CSC[C@H](C(=O)N2CCC[C@H]2C(=O)N[C@H]2CCSC[C@H](C(=O)N[C@H]3CCSC[C@H](C(=O)O)NC(=O)[C@H](C)NC(=O)[C@H](CCCNC(=N)N)NC3=O)NC(=O)[C@H](C)NC(=O)[C@H]([C@@H](C)O)NC2=O)NC(=O)[C@H]([C@@H](C)O)NC(=O)[C@H](CC(N)=O)NC(=O)[C@H](CO)NC1=O)[C@@H](C)CC)[C@@H](C)CC)C(C)C | inactive | inactive | inactive | inactive | inactive | inactive | inactive | inactive | inactive | inactive | inactive | inactive | Activity (Bacillus cereus [6]): Active; Activity (Staphylococcus aureus [8]): Active; Activity (Cell membrane [9]): Active; Activity (Listeria monocytogenes [10]): Active; Activity (Cell membrane [11]): Active; Activity (Enterococcus faecium [12]): Active |
| C/C=C(\NC(=O)[C@H](CC(N)=O)NC(=O)/C(=C/C)NC(=O)[C@@H]1CCSC[C@@H](N)C(=O)N1)C(=O)N[C@@H](Cc1ccccc1)C(=O)N[C@H](C)C(=O)N[C@@H](CC(C)C)C(=O)N[C@@H]1CSC[C@H](C(=O)N[C@H]2CCSC[C@H]3NC(=O)[C@H](CCC(=O)O)NC(=O)[C@H](CCCCN)NC(=O)[C@@H](CSC[C@H](C(=O)O)NC(=O)[C@H](Cc4c[nH]c5ccccc45)NC(=O)[C@H](C)NC(=O)[C@H](CCSC)NC3=O)NC(=O)[C@H](C(C)C)NC2=O)NC(=O)[C@H](Cc2c[nH]c3ccccc23)NC(=O)CNC(=O)CNC(=O)[C@H](CCCCN)NC(=O)[C@H](CC(N)=O)NC(=O)CNC(=O)[C@H](Cc2c[nH]c3ccccc23)NC(=O)[C@H](Cc2ccc(O)cc2)NC(=O)[C@H](CC(=O)O)NC1=O | inactive | inactive | inactive | inactive | inactive | inactive | inactive | inactive | inactive | inactive | inactive | inactive | Activity (Cell membrane [14]): Active; Activity (Cell membrane [15]): Active; Activity [16]: Active; Activity (Enterococcus faecium [17]): Active; Activity (Listeria monocytogenes [18]): Active; Activity (Bacillus cereus [19]): Active; Activity (Staphylococcus aureus [20]): Active |
